Source: ChEMBL document CHEMBL1125121, “Synthesis and activity of a potent N-methyl-D-aspartic acid agonist, trans-1-aminocyclobutane-1,3-dicarboxylic acid, and related phosphonic and carboxylic acids” (J Med Chem, 1990)
Calls of active or inactive are those of the source. No cut-off for these calls is given here.

How the values were obtained:
Type in all cases: functional
[1] = biological target: T1, Glutamate NMDA receptor (Rattus norvegicus) (UniProt P35439+Q00959+Q00960+Q00961+Q62645+Q8VHN2+Q9R1M7); assay: Antagonistic activity against 10 uM of N-methyl-D-aspartate glutamate receptor at the concentration of 200 uM; parameters: scale not given: the % may be the effect or the level left
[2] = biological target: T1, Glutamate NMDA receptor (Rattus norvegicus); assay: Depression of depolarizing response vs 10 uM N-methyl-D-aspartate glutamate receptor at the concentration of 500 uM; inactive
[3] = biological target: T2, Glutamate receptor ionotropic, kainate (Rattus norvegicus) (UniProt P22756+Q01812+P42260+P42264+Q63273); assay: Antagonistic activity against Ionotropic glutamate receptor kainate at the concentration of 200 uM; parameters: scale not given: the % may be the effect or the level left
[4] = biological target: T3, Glutamate receptor ionotropic, AMPA (Rattus norvegicus) (UniProt P19491+P19492+P19493+P19490); assay: Antagonistic activity against 5 uM of quis/AMPA at the concentration of 200 uM; parameters: scale not given: the % may be the effect or the level left
[5] = biological target: T2, Glutamate receptor ionotropic, kainate (Rattus norvegicus); assay: Antagonistic activity against Ionotropic glutamate receptor kainate at the concentration of 500 uM; ns = not significant
[6] = biological target: T1, Glutamate NMDA receptor (Rattus norvegicus); assay: Antagonistic activity against 10 uM of N-methyl-D-aspartate glutamate receptor at the concentration of 500 uM; ns = not significant
[7] = biological target: T3, Glutamate receptor ionotropic, AMPA (Rattus norvegicus); assay: Antagonistic activity against 5 uM of quis/AMPA at the concentration of 500 uM; ns = not significant
[8] = biological target: T1, Glutamate NMDA receptor (Rattus norvegicus); assay: Depression of depolarizing response vs 10 uM N-methyl-D-aspartate glutamate receptor at the concentration of 500 uM
[9] = biological target: T3, Glutamate receptor ionotropic, AMPA (Rattus norvegicus); assay: Antagonistic activity against 5 uM of quis/AMPA at the concentration of 100 uM; parameters: scale not given: the % may be the effect or the level left
[10] = biological target: T2, Glutamate receptor ionotropic, kainate (Rattus norvegicus); assay: Antagonistic activity against Ionotropic glutamate receptor kainate at the concentration of 100 uM; parameters: scale not given: the % may be the effect or the level left
[11] = biological target: T1, Glutamate NMDA receptor (Rattus norvegicus); assay: Antagonistic activity against 10 uM of N-methyl-D-aspartate glutamate receptor at the concentration of 100 uM; parameters: scale not given: the % may be the effect or the level left
[12] = biological target: T1, Glutamate NMDA receptor (Rattus norvegicus); assay: Antagonistic activity against 10 uM of N-methyl-D-aspartate glutamate receptor at the concentration of 500 uM; parameters: scale not given: the % may be the effect or the level left
[13] = biological target: T3, Glutamate receptor ionotropic, AMPA (Rattus norvegicus); assay: Antagonistic activity against 5 uM of quis/AMPA at the concentration of 200 uM; ns = not significant
[14] = biological target: T1, Glutamate NMDA receptor (Rattus norvegicus); assay: Depression of depolarizing response vs 10 uM N-methyl-D-aspartate glutamate receptor at the concentration of 200 uM; inactive
[15] = biological target: T2, Glutamate receptor ionotropic, kainate (Rattus norvegicus); assay: Antagonistic activity against Ionotropic glutamate receptor kainate at the concentration of 200 uM; ns = not significant

SMILES | Activity [1] [%] | Activity [2] | Activity [5] | Activity [7] | Activity [8] | further results
N[C@]1(C(=O)O)C[C@H](CC(=O)O)C1 | – | – | inactive | inactive | 0.65 | Activity [6]: inactive
N[C@]1(C(=O)O)C[C@@H](CC(=O)O)C1 | 50 | – | – | – | 0.25 | –
NC1(C(=O)O)CC(=CP(=O)(O)O)C1 (configuration not stated) | – | inactive | – | – | – | Activity [9]: 30%; Activity [10]: 25%; Activity [11]: 40%
N[C@]1(C(=O)O)C[C@@H](CP(=O)(O)O)C1 | 40 | – | – | – | – | Activity [13]: inactive; Activity [14]: inactive; Activity [15]: inactive

More lines, main results first:

Activity [1] [%] | Activity [2] | Activity [5] | Activity [7] | Activity [8] | SMILES | further results
40 | inactive | – | – | – | N[C@]1(C(=O)O)C[C@@H](CP(=O)(O)O)C1.N[C@]1(C(=O)O)C[C@H](CP(=O)(O)O)C1 | Activity [3]: 25%; Activity [4]: 25%
– | inactive | inactive | inactive | – | N[C@]1(C(=O)O)C[C@@H](CCCP(=O)(O)O)C1.N[C@]1(C(=O)O)C[C@H](CCCP(=O)(O)O)C1 | Activity [12]: 50%
